Like-named read-outs stand apart in the source and are kept apart here.
What was measured:
[1] = tested on: Saccharomyces cerevisiae strain 62 expressing PAD1; assay type: cell-based; settings: predicted decarboxylation product in headspace; weak acid 0.5 mM, YEPD pH 4, 10 h at 28° C.; 0 = no decarboxylation
Method: S. cerevisiae strain 62 (which expresses the PAD1 gene) was cultured for 48 hr in YEPD pH 4, Yeast extract 10 g, Peptone 20 g, Glucose 20 g, at 28° C. in a shake flask, 120 rpm. The stationary-phase cells were inoculated into capped 28 ml McCartney bottles containing 10 mls YEPD pH 4, at 1 million cells per ml. Each bottle also contained one of 70 substrate weak acids at 0.5 mM. Tubes were then shaken for 10 h at 28° C.
1 ml samples of the headspace were passed into stainless-steel thermal desorption tubes, followed by a 10 ml air flush. (Desorption tubes—89 mm×5 mm ID, packed with 200 mg Tenax TA 60-80 mesh, Phase Separations, UK).
Thermal desorption tubes were placed in a Perkin Elmer ATD400 thermal desorption system, and the volatiles transferred to the Gas Chromatograph in a 2 stage process. Primary desorption was 250° C. for 10 min with a helium flow of […]. Using a split ratio of 1:1, volatiles were retained on a cold trap (25 mg Tenax TA) held at −30° C. Secondary desorption was carried out by rapidly heating and holding the cold trap at 250° C. for 2 min, with a helium flow of 20 ml/min and split ratio of 19:1. A DB624 column {30 m×0.32 mm, 1.8 microns film thickness} installed in a Carbo Erba GC800 was used to achieve separation and introduction of the volatile to the mass spectrometer. The column temperature was held at 40° C. for 2 min then increased at 5° C./min to 250° C. The column outlet was coupled via a heated transfer line at 250° C. into the ion source of the mass spectrometer operated at 70 eV in electron ionization (EI) mode. The source temperature was at 200° C. and the detector photomultiplier at 500V. Full scan MS data acquisition was carried out from m/z 30 to 300, with 0.6 sec scan and 0.05 sec inter scan delay.
The results are shown in Table 3, in each case the “predicted product” being the product which would be produced if decarboxylation of the weak acid were to take place.

[2] = cited from earlier work
[3] = tested on: S. cerevisiae BY4741 (PAD1) and S. cerevisiae YO5833 (Δ pad1); assay: Selection of PAD1-gene containing yeast in broth culture by weak acid; assay type: cell-based, Saccharomyces cerevisiae; settings: buffered YEPD pH 4.0, 14 days at 25° C., growth by OD 600 nm
Method: Flasks were cultured at 25° C. for 14 days, shaken at 120 rpm on an orbital shaker (25 mm orbit). After 14 days, yeast growth was measured by spectrophotometer at 600 nm (Optical Density, OD 600 nm).
Yeast strains S. cerevisiae BY4741 (PAD1) and S. cerevisiae YO5833—Euroscarf (Δ pad1) were separately inoculated at 10^3 cells/ml into 100 ml conical flasks containing 50 mls buffered YEPD pH 4.0 (glycerol 20 g/l, Bacteriological peptone 20 g/l, yeast extract 10 g/l, succinic acid 3 g/l, adjusted to pH 4.0 with potassium hydroxide) each containing higher concentrations of 4-Methylcinnamic acid, 0-0.11 mM. Flasks were cultured for 14 days at 25° C., shaken at 160 rpm on an orbital shaker (25 mm orbit). After 14 days, yeast growth was measured by spectrophotometer at 600 nm (Optical Density, OD 600 nm).

[4] = tested on: S. cerevisiae BY4741 (PAD1); assay: Selection in agar, growth of PAD1-containing yeast; assay type: cell-based, Saccharomyces cerevisiae; settings: 4-Methylcinnamic acid 0.096 mM in agar, pH 4.0, 10 days at 25° C.
Method: (§1) Buffered YEPD containing 4-Methylcinnamic acid, was prepared as follows: glycerol 20 g/l, Bacteriological peptone 20 g/l, yeast extract […], agar 15 g/l, succinic acid 3 g/l, 4-Methylcinnamic acid 15.55 mg/l (0.096 mM). Agar was sterilised by autoclaving at pH 6.0, cooled to 50° C., adjusted to pH 4.0, then poured into Petri dishes and allowed to set. Agar plates were spread with dilute cultures of S. cerevisiae BY4741 (PAD1) (upper half of plate—FIG. 8), and dilute cultures of S. cerevisiae YO5833—Euroscarf (Δ pad1) on the lower half of the plate.

[5] = tested on: S. cerevisiae YO5833 (Δ pad1); assay: Selection in agar, growth of Δ pad1 yeast; assay type: cell-based, Saccharomyces cerevisiae; settings: 4-Methylcinnamic acid 0.096 mM in agar, pH 4.0, 10 days at 25° C.
Method: as §1

[6] = tested on: decarboxylase from mould spores; settings: 1 mM sorbic acid, equimolar 1,3-pentadiene in headspace within 18 hours; cited from earlier work
[7] = Table 1, monocarboxylic weak acids
[8] = Table 2, most preferred weak acids

| SMILES | GCMS Peak area [1] | Pka [2, 7] | also measured |
| --- | --- | --- | --- |
| O=C(O)C=Cc1ccoc1 [3-Furan-acrylic acid] | 2165 | 3.9 | Pka [2, 8]: 3.9 |
| O=C(O)C=Cc1cccs1 [3-(2-Thienyl)acrylic acid] | 20571 | 4.2 | Pka [2, 8]: 4.2 |
| O=C(O)C=Cc1ccsc1 [3-(3-Thienyl)acrylic acid] | 1586 | 4.1 | Pka [2, 8]: 4.1 |
| C=CCCCC(=O)O [5-Hexenoic acid] | 0 | 4.81 |  |
| Cc1ccc(C=CC(=O)O)cc1 [4-Methyl-cinnamic acid] | 11013 |  | concentration range showing good selection for PAD1-containing yeasts [3]: 0.075 to 0.11 mM; growth of PAD1-containing yeast cells on agar [4]: formed large colonies; growth of Δ pad1 yeast on agar [5]: barely perceptible |
| O=C(O)C/C=C/c1ccccc1 [trans-Styrylacetic acid] | 0 | 4.688 |  |
| CC(C)=CCC/C(C)=C/C(=O)O [Geranic acid] | 0 | 4.7211 |  |
| CC/C=C\CC(=O)O [cis-3-Hexenoic acid] | 0 | 4.608 |  |
| C=CC=CC(=O)O [2,4-Pentadienoic acid] | 107 | 4.72 | Pka [2, 8]: 4.72 |
| C=CCC/C=C/C(=O)O [trans, trans-2,6-Heptadienoic acid] | 0 | 3.7528 |  |
| C/C=C/C=C/C(=O)O [Sorbic acid] | 8795 |  | removal of weak acid by decarboxylase [6]: completely removed |
| CCCCC/C=C/C(=O)O [trans-2-Octenoic acid] | 0 | 3.902 |  |
| CC(=Cc1ccccc1)C(=O)O [alpha-methyl-cinnamic acid] | 889 | 4.45 | Pka [2, 8]: 4.45 |
| CCCCCCCC=CC(=O)O [2-Decenoic acid] | 0 | 3.9018 |  |
| CC/C=C/C(=O)O [trans-2-Pentenoic acid] | 0 | 4.1578 |  |
| CCCCCCC(=O)O [Heptanoic acid] | 0 | 4.8 |  |

| SMILES | GCMS Peak area [1] | Pka [2, 7] | also measured |
| --- | --- | --- | --- |
| O=C(O)C=Cc1ccc(F)cc1 [4-Fluoro-cinnamic acid] | 18699 |  | concentration range showing good selection for PAD1-containing yeasts [3]: 0.15 to 0.225 mM |
| COc1cc(/C=C/C(=O)O)ccc1O [Ferulic acid] | 0 | 4.58 |  |
| C/C=C/CCC(=O)O [trans-4-Hexenoic acid] | 0 | 4.6984 |  |
| O=C(O)C=Cc1ccccc1O [2-Hydroxy-cinnamic acid] | 0 | 4.7 |  |
| CCC/C=C/C(=O)O [trans-2-Hexenoic acid] | 0 | 3.8306 |  |
| CCCC/C=C/C(=O)O [trans-2-Heptenoic acid] | 0 | 3.7839 |  |
| C/C=C/C(=O)O [Crotonic acid] | 0 | 4.17 |  |
| O=C(O)C=Cc1cccc(O)c1 [3-Hydroxy-cinnamic acid] | 0 | 4.6 |  |
| Cc1ccccc1C=CC(=O)O [2-Methyl-cinnamic acid] | 18046 |  |  |
| O=C(O)C(F)=Cc1ccccc1 [alpha-fluoro-cinnamic acid] | 2659 | 4.45 | Pka [2, 8]: 4.45 |
| O=C(O)C#Cc1ccccc1 [Phenyl-propiolic acid] | 0 |  |  |
| CCCCCCC=CC(=O)O [2-Nonenoic acid] | 0 | 3.9148 |  |
| O=CC=Cc1ccccc1 [Cinnamaldehyde] | 0 |  |  |
| CC/C=C/CC(=O)O [trans-3-Hexenoic acid] | 0 | 4.608 |  |
| O=C(O)/C=C/c1ccc(O)c(O)c1 [Caffeic acid] | 0 | 4.7 |  |
| O=C(O)C=Cc1cccc(F)c1 [3-Fluoro-cinnamic acid] | 14027 |  |  |

Source: US20090092975A1, “SELECTABLE MARKER” (Mologic Ltd, priority 2005, published 2009)
